In publication PMC9021956, “Screening and Identification of HBV Epitopes Restricted by Multiple Prevalent HLA-A Allotypes” (Frontiers in Immunology, 2022):
Where two headings read alike, the source gives them in different places. Residues, ends and D or L forms follow the SMILES beside them.

Legend:
[1] = target: T1, HLA-A0201 (Homo sapiens, UniProt P04439, D140Y/D185E/D98H/E176V/E277Q/G131W/G231S/I119V/I121R/I166T/I218V/L300P/L318F/N151K/N90K/P208A/P217A/Q86G/Q94H/R138H/R169H/T345S); assay: cell-based; format: binding; conditions: for inhibition at 5 µM: read-out: 5μM Inhibition (%); for inhibition at 15 µM: read-out: 15μM Inhibition (%)
T1 construct: expressed in transfected cells; host or cells: HMy2.CIR
Method in brief: (§1)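 Affinity is expressed as IC50 for displacement of the FITC-labeled reference peptide from HLA-A on transfected HMy2.CIR cells. Cell-surface molecules were first emptied by brief acid treatment (pH 3.3) and then refolded with β2-m at 1 μg/mL in the presence of competitor.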

[2] = target: T2, HLA-A1101 (Homo sapiens, UniProt P04439, A114D/D185E/E176A/F33Y/L180Q/S129P/T187R); assay: cell-based; format: binding; conditions: for inhibition at 5 µM: read-out: 5μM Inhibition (%); for inhibition at 15 µM: read-out: 15μM Inhibition (%)
T2 construct: expressed in transfected cells; host or cells: HMy2.CIR
Method in brief: as §1

[3] = target: HLA-A3101 (Homo sapiens, UniProt P04439, A270S/D185E/E176V/E277Q/F33T/G231S/G80R/H175R/I121M/I218V/I322F/K168Q/L300P/L318F/M331R/P217A/Q94H/R138Q/T323A/T345S/T97I/V358M); assay: Peptide competitive binding assay, transfected HMy2.CIR cells, reference ATFQFK(FITC)VER; conditions: for inhibition at 5 µM / inhibition at 15 µM: HLA-A3101 HMy2.CIR cells; for inhibition at 5 µM: competitor peptide 5μM; for inhibition at 15 µM: competitor peptide 15μM; for IC50: read-out: Affinity
Method in brief: as §1

[4] = target: HLA-A2402 (Homo sapiens, UniProt P04439, D101N/D140Y/D185E/E176V/E190D/F33S/G103R/G107R/I119L/I121M/I306V/K335N/L105A/L180Q/L300P/N151K/N90K/Q86E/Q94H/R106L/R138H/R89G/T104I/T345S/V100E/W191G/Y123F); assay: cell-based; format: binding
Method in brief: as §1

[5] = HLA-A1101 HMy2.CIR cells, competitor peptide 5μM, 24 hours, flow cytometry
[6] = HLA-A1101 HMy2.CIR cells, competitor peptide 15μM, 24 hours, flow cytometry

Row | Compound | IC50 [1] [µM] | inhibition at 5 µM ([1]; HLA-A0201 HMy2.CIR cells, competitor peptide 5μM, 24 hours, flow cytometry) [%] | inhibition at 15 µM ([1]; HLA-A0201 HMy2.CIR cells, competitor peptide 15μM, 24 hours, flow cytometry) [%] | IC50 [2] [µM] | inhibition at 5 µM [2, 5] [%] | inhibition at 15 µM [2, 6] [%] | inhibition at 5 µM ([3]; 24 hours, flow cytometry) [%] | inhibition at 15 µM ([3]; 24 hours, flow cytometry) [%] | IC50 [3] [µM] | inhibition at 5 µM ([1]; 24 h) [%] | inhibition at 15 µM ([1]; 24 h) [%] | inhibition at 5 µM ([2]; 24 h) [%] | inhibition at 15 µM ([2]; 24 h) [%] | IC50 [4] [µM] | inhibition at 5 µM ([4]; HLA-A2402 HMy2.CIR cells, competitor peptide 5μM, 24 hours, flow cytometry) [%] | inhibition at 15 µM ([4]; HLA-A2402 HMy2.CIR cells, competitor peptide 15μM, 24 hours, flow cytometry) [%] | Affinity ([3]; transfected HMy2.CIR cells expressing HLA-A3101, unlabeled peptide competes with FITC-labeled reference peptide, 24 hours, flow cytometry, class by IC50)
1 | CC(C)C[C@H](NC(=O)[C@H](CCCCN)NC(=O)[C@H](Cc1c[nH]cn1)NC(=O)[C@H](CCCNC(=N)N)NC(=O)[C@H](CS)NC(=O)CNC(=O)CNC(=O)[C@H](CC(C)C)NC(=O)[C@@H](N)C(C)C)C(=O)O [Epitope P36] (H-VLGGCRHKL-OH; N-terminus and C-terminus assumed) | > 15 | 22.3 | 37.3 | > 15 | 14 | 20.6 | 4.82 | 5.7 | > 15 | – | – | – | – | – | – | – | –
2 | CC[C@H](C)[C@H](NC(=O)[C@H](CO)NC(=O)[C@H](CO)NC(=O)[C@@H](NC(=O)[C@@H]1CCCN1C(=O)[C@@H](N)CO)[C@@H](C)CC)C(=O)N[C@@H](Cc1ccccc1)C(=O)N[C@@H](CO)C(=O)N[C@@H](CCCNC(=N)N)C(=O)O [Epitope P38] (H-SPISSIFSR-OH; N-terminus and C-terminus assumed) | – | – | – | – | – | – | 4.04 | 4.49 | – | 0 | 0 | 13.2 | 14.6 | – | – | – | –
3 | CC(C)C[C@H](NC(=O)[C@H](CO)NC(=O)[C@H](Cc1ccccc1)NC(=O)[C@H](Cc1ccccc1)NC(=O)CNC(=O)[C@H](C)NC(=O)[C@@H](N)CCC(N)=O)C(=O)N[C@H](C(=O)N[C@@H](CCCCN)C(=O)O)[C@@H](C)O [Epitope P40] (H-QAGFFSLTK-OH; N-terminus and C-terminus assumed) | – | – | – | < 5 | 87.7 | 92.8 | 4.93 | 5.48 | > 15 | – | – | – | – | – | – | – | –
4 | CC(C)C[C@H](NC(=O)[C@@H](NC(=O)[C@H](Cc1ccccc1)NC(=O)[C@@H](NC(=O)[C@@H](N)CCCCN)C(C)C)C(C)C)C(=O)NCC(=O)NCC(=O)N[C@@H](CS)C(=O)N[C@@H](CCCNC(=N)N)C(=O)O [Epitope P63] | – | – | – | – | – | – | 35.4 | 55.4 | – | – | – | – | – | > 15 | 9.68 | 4.38 | inter
